In PMC10384657 (Virus Research, 2023):

Legend:
[1] = system: MPER25c peptide (S2 membrane proximal region derived); assay type: binding, SARS-CoV-2
Vero E6 cells = conditions: 72 h
Vero E6/TMPRSS2 = conditions: 72 h

Structure (SMILES) | fold lower binding activity to immobilized MPER25c than PN19 [1] | CC50 (mean ± SD) (Vero E6 cells) [µM] | binding to immobilized MPER25c (in words) [1] | ka [1] [M⁻¹ s⁻¹] | CC50 (mean ± SD) (Vero E6/TMPRSS2) [µM] | fold reduction of the expected IC50 value of PN19 produced by MPER25 (SARS-CoV-2) [fold]
CC[C@H](C)[C@H](NC(=O)[C@H](CCC(N)=O)NC(=O)[C@H](CC(C)C)NC(=O)[C@H](C)NC(=O)[C@H](C)NC(=O)CNC(=O)[C@H](C)NC(=O)CNC(=O)[C@H](Cc1ccccc1)NC(C)=O)C(=O)N1CCC[C@H]1C(=O)N[C@@H](Cc1ccccc1)C(=O)N[C@@H](C)C(=O)N[C@@H](CCSC)C(=O)N[C@@H](CCC(N)=O)C(=O)N[C@@H](CCSC)C(=O)N[C@@H](C)C(=O)N[C@@H](C)C(=O)N[C@@H](CCCNC(=N)N)C(=O)N[C@@H](Cc1ccccc1)C(N)=O [PN19Y→A904] | 2-3 fold | > 100 |  |  |  | 
CC[C@H](C)[C@H](NC(=O)[C@H](CCC(N)=O)NC(=O)[C@H](CC(C)C)NC(=O)[C@H](C)NC(=O)[C@H](C)NC(=O)CNC(=O)[C@H](C)NC(=O)CNC(=O)[C@H](Cc1ccccc1)NC(C)=O)C(=O)N1CCC[C@H]1C(=O)N[C@@H](Cc1ccccc1)C(=O)N[C@@H](C)C(=O)N[C@@H](CCSC)C(=O)N[C@@H](CCC(N)=O)C(=O)N[C@@H](CCSC)C(=O)N[C@@H](C)C(=O)N[C@@H](Cc1ccc(O)cc1)C(=O)N[C@@H](CCCNC(=N)N)C(=O)N[C@@H](Cc1ccccc1)C(N)=O [PN19] |  | > 100 | binds to immobilized MPER25c | 410.9 | > 100 | 48
